For this test, the target named is T1, BT0984^GH139 (Bacteroides thetaiotaomicron, UniProt Q8A933).
T1 construct: gene BT_0984; full-length gene in pET28a (NheI/XhoI), N-terminal His6 tag, expressed in E. coli BL21(DE3) or TUNER; cobalt IMAC purified
T1 sequence (Q8A933 1-803): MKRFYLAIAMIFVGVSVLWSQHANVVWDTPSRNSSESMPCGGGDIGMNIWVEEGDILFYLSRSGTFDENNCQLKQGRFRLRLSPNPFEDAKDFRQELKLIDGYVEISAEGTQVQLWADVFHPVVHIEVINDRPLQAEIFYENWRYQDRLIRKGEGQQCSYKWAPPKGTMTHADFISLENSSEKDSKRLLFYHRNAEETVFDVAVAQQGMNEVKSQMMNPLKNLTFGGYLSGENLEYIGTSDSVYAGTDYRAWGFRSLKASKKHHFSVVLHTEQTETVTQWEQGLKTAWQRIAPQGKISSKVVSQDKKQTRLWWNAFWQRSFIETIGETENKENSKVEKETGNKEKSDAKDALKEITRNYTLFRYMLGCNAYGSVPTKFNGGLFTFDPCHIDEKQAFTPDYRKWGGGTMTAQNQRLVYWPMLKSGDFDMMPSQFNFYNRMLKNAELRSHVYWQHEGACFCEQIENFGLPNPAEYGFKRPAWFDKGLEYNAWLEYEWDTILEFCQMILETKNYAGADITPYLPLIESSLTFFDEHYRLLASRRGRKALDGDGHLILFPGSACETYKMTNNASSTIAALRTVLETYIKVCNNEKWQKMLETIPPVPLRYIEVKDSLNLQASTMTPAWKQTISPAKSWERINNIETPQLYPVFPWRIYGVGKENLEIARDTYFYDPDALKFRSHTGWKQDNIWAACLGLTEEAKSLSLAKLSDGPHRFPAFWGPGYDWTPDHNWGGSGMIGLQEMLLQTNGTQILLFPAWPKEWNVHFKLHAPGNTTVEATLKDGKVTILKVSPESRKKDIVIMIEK
In words: thin layer chromatography. It is filed as biochemical. Conditions: 1 μM enzyme, 10 mM MOPS pH 7.0, 150 mM NaCl, 37 °C; slow.

In PMC12282258, “Understanding the substrate recognition and catalytic mechanism of 2-O-methyl fucosidases from glycoside hydrolase family 139” (The Journal of Biological Chemistry, 2025) one finds thin layer chromatography data, which are given here for one molecule.

As for `CO[C@@H]1[C@H](Oc2ccc([N+](=O)[O-])cc2)O[C@@H](C)[C@@H](O)[C@H]1O` [4NP-MeFuc, 4-nitrophenyl-2-O-methyl-α-L-fucopyranoside], the thin layer chromatography entry is on record as “displayed activity on 4-nitrophenyl 2-O-methyl-α-L-fucoside (4NP-MeFuc)”.
